Measured values taken from the supplement of paper PMC11451515.

Tests used:
Experiment in all cases: AUC of viability dose-response curve (% viability x log10 dose units); higher = less sensitive
Settings in all cases: 48 h
NOMO1 = tested on: NOMO1
Procedure, shortened: (§1)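 Medium-adapted leukemia cells in 1536-well plates, at 500 or 1000 cells/well, were incubated for 48 h at 37°C with library compounds in DMSO at 11 threefold doses from 47 μM to 0.79 nM. CellTiter-Glo One luminescence normalised per plate to DMSO and cell-free wells was fitted with a four-parameter log-logistic model over log10 doses. Area under the curve was integrated from this fit by trapezoidal rule, with curves beyond full viability scaled and failed quality-control curves removed.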

SEM cells = tested on: SEM cells
Procedure, shortened: as §1

P12-Ichikawa = tested on: P12-Ichikawa
Procedure, shortened: as §1

[1] = RPMI 5 mM glucose + 10% dialyzed FBS

Row | SMILES | AUC of viability dose-response curve (NOMO1; HPLM + 10% dialyzed FBS) | AUC of viability dose-response curve (NOMO1; RPMI 5 mM glucose + 10% FBS) | AUC of viability dose-response curve (NOMO1; [1]) | AUC of viability dose-response curve (SEM cells; HPLM + 10% dialyzed FBS) | AUC of viability dose-response curve (SEM cells; RPMI 5 mM glucose + 10% FBS) | AUC of viability dose-response curve (SEM cells; [1]) | AUC of viability dose-response curve (P12-Ichikawa; HPLM + 10% dialyzed FBS) | AUC of viability dose-response curve (P12-Ichikawa; RPMI 5 mM glucose + 10% FBS) | AUC of viability dose-response curve (P12-Ichikawa; [1])
1 | CCCCC(C=O)NC(=O)C(CC(C)C)NC(=O)OCc1ccccc1 (stereo not given) | 409 | 410 | 424 | 430 | 439 | 393 | 422 | 393 | 377
2 | COC/1=C/C=C2\C(=C/C1=O)[C@H](CCC3=CC(=C(OC)C(=C23)OC)OC)NC(C)=O | – | – | – | 80.3 | 49.8 | 54.6 | 54.5 | 46.5 | 64.7
3 | O=C1Nc2ccc(I)cc2/C1=C/c1cc(Br)c(O)c(Br)c1 | 469 | 457 | 448 | 466 | 457 | 451 | 469 | 468 | 458
4 | O=C\1N(N\C=C1[N]2C=CN=N2)C3=NC=NC(=C3)N4CCOCC4 | 221 | 210 | 222 | – | – | – | 211 | 225 | 248
5 | Oc1cccc(-c2nc(N3CCOCC3)c3oc4ncccc4c3n2)c1 | 464 | 466 | 459 | 337 | 302 | 312 | 449 | 401 | 430
6 | c1ccc(CNc2nc(N3CCOc4ccccc43)nc3c2CCCC3)cc1 | 468 | 473 | 470 | 455 | 428 | 451 | 461 | 476 | 472
7 | CC/1=C(/C(CC(=O)N1)C2=CC=C(C=C2)C(F)(F)F)C(=O)NC3=C(F)C=C4[NH]N=CC4=C3 (stereo not given) | 422 | 389 | 415 | 405 | 418 | 411 | 442 | 450 | 448
8 | C[C@]12CC[C@H]3[C@@H](CCC/4=C/C(=O)CC[C@]34C)[C@@H]1CC[C@@H]2O | 463 | 460 | 462 | 467 | 450 | 444 | 468 | 467 | 470
9 | CN1C(=O)C[C@H](C(=O)N[C@@H](Cc2cnc[nH]2)C(=O)N2CCC[C@H]2C(N)=O)NC1=O | 462 | 463 | 435 | 456 | 435 | 459 | 462 | 464 | 470
10 | COc1cc2nc(-c3cc(F)ccc3O)nc(N[C@@H]3CNC[C@H]3C(C)(C)O)c2cc1OC | 449 | 463 | 455 | 274 | 283 | 227 | 436 | 429 | 410
11 | CC[C@@]1(O)C(=O)OC\C2=C1\C=C\3N(CC4=C3N=C5C=CC=CC5=C4)C2=O | 248 | 241 | 246 | 190 | 158 | 165 | 172 | 164 | 161
12 | CN[C@@H](C)C(=O)N[C@H]1CN(C(=O)CC(C)C)CC[C@H]2CC[C@@H](C(=O)NC(c3ccccc3)c3ccccc3)N2C1=O | 317 | 336 | 361 | 431 | 406 | 423 | 411 | 406 | 424
13 | CC[C@H](C)C(=O)O[C@H]1C[C@H](O)\C=C2\C=C/[C@H](C)[C@H](CC[C@@H](O)C[C@@H](O)CC(O)=O)[C@@H]12 | 441 | 457 | 462 | 458 | 464 | 470 | 447 | 460 | 464
14 | O=C(O)/C=C/c1ccc(O)c(O)c1 | 454 | 453 | 462 | 447 | 423 | 428 | 449 | 447 | 443
15 | Nc1nc(N)c2nc(-c3cccc(O)c3)c(-c3cccc(O)c3)nc2n1 | 402 | 443 | 440 | 409 | 430 | 420 | 409 | 445 | 454
16 | CN1CCCC(CC1)N2\N=C(CC3=CC=C(Cl)C=C3)/C4=C(C=CC=C4)C2=O (stereo not given) | 440 | 457 | 461 | 468 | 394 | 464 | 455 | 466 | 461
17 | C/C(O)=C(\C#N)C(=O)Nc1cc(Br)ccc1Br | 420 | 439 | 442 | 441 | 442 | 434 | 462 | 469 | 449
18 | COC1=CC=CC(=C1N)\C2=C\C(=O)C3=C(O2)C=CC=C3 | 464 | 466 | 463 | 432 | 428 | 419 | 469 | 459 | 465
19 | Cc1csc(NC(=O)c2sc3nc4c(c(C(F)(F)F)c3c2N)CCC4)n1 | 449 | 419 | 441 | 429 | 442 | 420 | 444 | 433 | 394

Row | SMILES | AUC of viability dose-response curve (NOMO1; HPLM + 10% dialyzed FBS) | AUC of viability dose-response curve (NOMO1; RPMI 5 mM glucose + 10% FBS) | AUC of viability dose-response curve (NOMO1; [1]) | AUC of viability dose-response curve (SEM cells; HPLM + 10% dialyzed FBS) | AUC of viability dose-response curve (SEM cells; RPMI 5 mM glucose + 10% FBS) | AUC of viability dose-response curve (SEM cells; [1]) | AUC of viability dose-response curve (P12-Ichikawa; HPLM + 10% dialyzed FBS) | AUC of viability dose-response curve (P12-Ichikawa; RPMI 5 mM glucose + 10% FBS) | AUC of viability dose-response curve (P12-Ichikawa; [1])
20 | CN(C)CCN(C)C(=O)c1ccc(NC(=O)Nc2ccc(-c3nc(N4CCOCC4)c4ccn(CC(F)(F)F)c4n3)cc2)cc1 | 327 | 393 | 371 | 339 | 325 | 341 | 417 | 359 | 360
21 | O=C(Nc1ncc(SCCN2CCCC2)s1)[C@]1(c2ccc([S+](=O)([O-])C3CC3)cc2)C[C@H]1C1CCCCC1 | 428 | 451 | 446 | 390 | 461 | 420 | 455 | 459 | 445
22 | COc1ccc2[nH]c([S+]([O-])Cc3ncc(C)c(OC)c3C)nc2c1 (stereo not given) | 411 | 434 | 418 | 354 | 411 | 392 | 427 | 398 | 363
23 | Cc1cc(Nc2nc(N[C@@H](C)c3ccc(F)cc3)c(C#N)cc2F)n[nH]1 | 414 | 362 | 394 | 367 | 368 | 364 | 396 | 399 | 393
24 | CN1CCC[C@@H]1CCO[C@](C)(c1ccccc1)c1ccc(Cl)cc1 | 466 | 461 | 473 | 469 | 472 | 471 | 463 | 467 | 474
25 | O=C(Oc1ccc([N+](=O)[O-])cc1)N1CCC(C(O)(c2ccc3c(c2)OCO3)c2ccc3c(c2)OCO3)CC1 | – | – | – | 396 | 379 | 418 | 439 | 432 | 411
26 | CN1CCN2c3ncccc3Cc3ccccc3C2C1 (stereo not given) | – | – | – | – | – | – | 470 | 460 | 463
27 | COc1cc2c(Nc3ccc(Br)cc3F)ncnc2cc1OCC1CCN(C)CC1 | 373 | 373 | 380 | – | – | – | 419 | 396 | 398
28 | CN1\C(=C(\O)C2=C(C=CC=C2)[S+]1([O-])=O)C(=O)NC3=CC=CC=N3 | 422 | 428 | 461 | – | – | – | 397 | 400 | 425
29 | Nc1nnc(-c2cccc(Cl)c2Cl)c(N)n1 | – | – | – | 425 | 402 | 418 | – | – | –
30 | CC1(C)CNc2cc(NC(=O)c3cccnc3NCc3ccncc3)ccc21 | 419 | 468 | 470 | – | – | – | 461 | 446 | 455
31 | CC(C)c1cc(C(=O)N2Cc3ccc(CN4CCN(C)CC4)cc3C2)c(O)cc1O | 320 | 317 | 323 | – | – | – | 374 | 342 | 348
32 | O=C(Cc1ccc(-c2ccc(OCCN3CCOCC3)cc2)cn1)NCc1ccccc1 | 294 | 263 | 277 | – | – | – | 200 | 205 | 222
33 | CNC[C@H](O)c1cccc(O)c1 | – | – | – | 410 | 388 | 417 | – | – | –
34 | Cn1c(=O)n(-c2ccc(C(C)(C)C#N)cc2)c2c3cc(-c4cnc5ccccc5c4)ccc3ncc21 | 344 | 354 | 315 | – | – | – | 337 | 315 | 325
35 | COc1ncnc(N[S+](=O)([O-])c2ccc(N)cc2)c1OC | 348 | 394 | 404 | – | – | – | 341 | 320 | 316
36 | CN1\N=C(N)/C2=C[N]([C@@H]3O[C@H](CO[P](O)(O)=O)[C@@H](O)[C@H]3O)C4=C2C1=NC=N4 | 341 | 393 | 347 | – | – | – | 353 | 329 | 346
37 | CC[C@H](NC(=O)[C@H](C)NC)C(=O)N1C[C@@H](O)C[C@H]1Cc1c(-c2[nH]c3cc(F)ccc3c2C[C@@H]2C[C@H](O)CN2C(=O)[C@H](CC)NC(=O)[C@H](C)NC)[nH]c2cc(F)ccc12 | 347 | 323 | 362 | 469 | 442 | 437 | – | – | –
38 | CCC(=O)N[C@H]1CC[C@H](C(=O)N(C)c2ccc(-c3nc4ccccc4o3)cc2)C1 | 454 | 449 | 415 | – | – | – | 477 | 458 | 453
